In one data set the test system is CVB3-H3. The experiment in a line: Plaque reduction assay, CVB3-H3 in HeLa-RW cells. The class given is cell-based, coxsackievirus B3. The following applies: compound added 30 min before infection, CVB3-H3 MOI 1, HeLa-RW, 6 hours; log10(titer with DMSO only/titer with inhibitor).
The test system of data set [1] is eGFP-expressing recombinant CVB3. The class given is cell-based, coxsackievirus B3. To be noted: for % of eGFP + cells, 0 Hr: compound added 0 hr post infection at its peak activity concentration, DMSO 26.0; for % of eGFP + cells, 0 Hr / % of eGFP + cells, 1 Hr / % of eGFP + cells, 2 Hr: read 6 hr post infection; for % of eGFP + cells, 1 Hr: compound added 1 hr post infection at its peak activity concentration, DMSO 23.7; for % of eGFP + cells, 2 Hr: compound added 2 hr post infection at its peak activity concentration, DMSO 24.8; for Inhibition of infected cells: eGFP-CVB3 m.o.i=1, compound added at time of infection, 6 hr post infection, 1-(% eGFP+ cells with compound/% with DMSO only).

For the next data set, the system named is HeLa-RW cells. The class given is cell-based. The following applies: in words. As to the method:
(§1) Procedure: Enteroviruses rapidly cause cell death, and a cell viability assay was used to examine the cytotoxicity of each compound and to identify the concentration needed to prevent cell death caused by coxsackievirus B3 (CVB3) infection.
(§2) Compounds were diluted two-fold and added to wells of 384 well plate. HeLa-RW cells were then added (cytotoxicity testing), or cells and CVB3 were added to provide a low multiplicity of infection to determine concentration of peak activity or 50% maximal concentration. Selectivity index is defined as the 50% Cytotoxic concentration/50% activity concentration

For data set [2], the system named is coxsackievirus B3 (CVB3). The experiment in a line: Cell viability assay, prevention of cell death caused by CVB3 infection. Type of data set: cell-based. To be noted: for Selectivity index: 50% Cytotoxic concentration/50% activity concentration; for IC50 / EC (peak activity): Enterovirus B; for IC50: read-out: 50% activity concentration (IC50); for EC (peak activity): HeLa-RW cells and CVB3 at low multiplicity of infection, read-out: Peak Activity Conc. As for the experimental part:
as §1, §2

The subject of another data set is CVB3. The experiment in a line: Time of addition experiment, CVB3 in HeLa cells. Type of data set: cell-based, coxsackievirus B3.
For data set [3], the system named is coxsackievirus B3 (CVB3). As to the kind of experiment: Cell viability assay, prevention of cell death caused by CVB3 infection. The class given is cell-based. To be noted: Enterovirus B, HeLa, read-out: 50% effective concentration (EC50), CVB3 replication.
A further data set deals with poliovirus 1 (PV-1). The class given is cell-based. Set-up: dose or concentration left out as unconfirmed. To be noted: HeLa cells, MOI of 1, six hours (FIG. 6).
Another data set relates to poliovirus-3 (PV-3). The class given is cell-based. More on the design: dose or concentration left out as unconfirmed. The following applies: HeLa cells, MOI of 1, six hours (FIG. 6).

Structures are written as SMILES.

As to `COc1ccc(C(=O)N2CCC(C(=O)c3ccc4c(c3)OCCO4)CC2)cc1F` [Compound 45, 2,3-Dihydro-1,4-benzodioxin-6-yl [1-(3-fluoro-4-methoxybenzoyl)-4-piperidinyl] methanone], in the data set with CVB3-H3, the “Log10 reduction of virus titer” value worked out at 2.0. In data set [1], the “% of eGFP + cells, 0 Hr” value was 8.9%; the “% of eGFP + cells, 1 Hr” value is 17.0%; the “% of eGFP + cells, 2 Hr” value was determined as 20.0%; the “Inhibition of infected cells” value came to 82.1%. The “cytotoxicity to HeLa cells” value in the data set on HeLa-RW cells was “minimally cytotoxic”. Besides, in the data set with coxsackievirus B3 (CVB3) [2], the Selectivity index is 125, the IC50 is 200 nM and the EC (peak activity) was determined as 1.56 µM. For the same compound, the “CVB3 replication, compound added 1 hour or more after inoculation” value in the data set with CVB3 (added 1 hour or more after inoculation (FIG. 7)) is “less potent”. Further, in the data set on CVB3 (added prior to inoculation of cultures (FIG. 7)), the “CVB3 replication, compound added prior to inoculation” value was “markedly reduced”. In the data set on coxsackievirus B3 (CVB3) [3], the EC50 stood at 200 nM.
As to `CC(C)n1ncc2c(C(=O)Nc3ccccc3F)cc(-c3cccs3)nc21` [Compound 3, N-(2-Fluorophenyl)-1-isopropyl-6-(2-thienyl)-1H-pyrazolo [3,4-b]pyridine-4-carboxamide], the “Log10 reduction of virus titer” value in the data set with CVB3-H3 worked out at 4.5. Besides, in data set [1], the “% of eGFP + cells, 0 Hr” value amounted to 0.0%; the “% of eGFP + cells, 1 Hr” value was determined as 0.0%; the “% of eGFP + cells, 2 Hr” value was determined as 0.0%; the “Inhibition of infected cells” value was 100%. Also, in the data set with coxsackievirus B3 (CVB3) [2], the Selectivity index came out at 175, the IC50 turned out to be 1140 nM and the EC (peak activity) amounted to 3.13 µM. In addition, the “titer of virus produced, PV-1” value with poliovirus 1 (PV-1) is listed as “marked reduction”. Besides, in the data set with poliovirus-3 (PV-3), the “titer of virus produced, PV-3” value was “marked reduction”. For the same compound, the “activity when added 2 hours after infection begins” value with CVB3 (virus produced six hours after infection (FIG. 7)) is “equivalently active”.
